Results on eleven compounds are retold here after patent US7786141B2 (Vertex Pharmaceuticals Incorporated, priority 2004, dated 2010).

Where two headings read alike, the source gives them in different places. A value given as a limit tells only on which side of the number the result lay.

The target of test [1] is T1, M1 muscarinic receptor (Homo sapiens, UniProt P11229).
T1 construct: expressed in transfected cells; host or cells: CHO (M1-CHO)
T1 sequence (P11229 1-460): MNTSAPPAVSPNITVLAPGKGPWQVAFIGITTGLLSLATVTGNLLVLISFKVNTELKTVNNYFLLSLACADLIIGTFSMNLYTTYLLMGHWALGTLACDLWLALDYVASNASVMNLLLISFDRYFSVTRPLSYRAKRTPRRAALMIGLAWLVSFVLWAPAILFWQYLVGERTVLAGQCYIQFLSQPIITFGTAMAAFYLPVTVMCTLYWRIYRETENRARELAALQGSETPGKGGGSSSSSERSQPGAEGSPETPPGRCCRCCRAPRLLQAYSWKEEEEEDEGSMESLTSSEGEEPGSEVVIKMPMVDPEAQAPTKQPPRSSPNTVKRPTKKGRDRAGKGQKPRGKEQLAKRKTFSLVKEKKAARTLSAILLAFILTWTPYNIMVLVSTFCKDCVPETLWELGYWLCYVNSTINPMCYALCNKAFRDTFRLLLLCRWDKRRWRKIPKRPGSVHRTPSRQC
Kind of test: Functional mobilization of intracellular calcium (FLIPR) in M1-CHO cells. In kind it is cell-based. Summed up:
(§1)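 FLIPR Ca2+ read, ex 488/em 540 nm, 60 s. Recombinant CHO lines (M1 or M4), dye-loaded Fluo-3 AM 60-90 min at 37° C, probenecid 1 mM, pH 7.4. Agonist: compound alone; inhibition: 15 min compound pre-incubation, then carbachol at EC80 for that subtype.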

In test [2] the target is T2, M4 muscarinic receptor (Homo sapiens, UniProt P08173).
T2 construct: expressed in transfected cells; host or cells: CHO (M4-CHO)
T2 sequence (P08173 1-479): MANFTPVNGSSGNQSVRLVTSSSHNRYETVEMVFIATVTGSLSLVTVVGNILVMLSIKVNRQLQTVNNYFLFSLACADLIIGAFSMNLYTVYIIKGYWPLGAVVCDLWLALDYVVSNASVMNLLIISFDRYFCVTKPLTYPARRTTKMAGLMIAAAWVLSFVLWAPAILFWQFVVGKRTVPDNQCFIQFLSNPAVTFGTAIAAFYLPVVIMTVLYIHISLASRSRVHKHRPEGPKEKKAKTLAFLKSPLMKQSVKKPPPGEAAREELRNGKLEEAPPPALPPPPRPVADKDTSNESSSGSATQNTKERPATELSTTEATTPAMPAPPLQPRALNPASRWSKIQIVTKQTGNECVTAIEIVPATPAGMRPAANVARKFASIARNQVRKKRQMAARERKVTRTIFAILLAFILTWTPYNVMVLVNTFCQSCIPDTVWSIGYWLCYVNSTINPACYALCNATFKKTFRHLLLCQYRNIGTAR
Kind of test: Functional mobilization of intracellular calcium (FLIPR) in M4-CHO cells. In kind it is cell-based. Summed up:
as §1

[3] abbreviates: M1 receptor, calcium mobilization.
Where [4] appears, read: M1 receptor, calcium mobilization, read-out: M1 Efficacy.
The mark [5] stands for this setting: M4 receptor, calcium mobilization.
The mark [6] stands for this setting: M4 receptor, calcium mobilization, read-out: M4 Efficacy.
Setting [7] is: Table 4, 100% efficacy is the maximum response obtained with the Carbachol control.
The mark [8] stands for this setting: Table 4, modulating M1 receptor.
Setting [9] is: Table 4, modulating M4 receptor.

For `COCCOC(=O)N1C2CCC1CC(N1CCC3(CC1)CN(C(=O)N(C)C)c1ccc(F)cc13)C2` (centres unmarked) [compound 119], in test [1] (setting [3]), the “M1 Activity” value is “xxx (activity was measured to be less than 0.1 μM)”. In addition, the Emax in test [1] (setting [4]) and in test [2] (setting [6]) was under 65% in each case. Besides, in test [2] (setting [5]), the “M4 Activity” value is reported as “x (activity was measured to be greater than 1.0 μM)”.
Consider `COCCOC(=O)N1CCC(N2CCC3(CC2)CN(C(=O)N(C)C)c2ccc(F)cc23)CC1` [compound 265], for which the “M1 Activity” value in test [1] (setting [3]) was “xx (activity was measured to be between 0.1 μM and 1.0 μM)”. Further, the Emax in test [1] (setting [4]) and in test [2] (setting [6]) was under 65% in each case. Moreover, the “M4 Activity” value in test [2] (setting [5]) is “xx (activity was measured to be between 0.1 μM and 1.0 μM)”.
On to `CCOC(=O)N1CCC(N2CCC3(CC2)CN(C(C)=O)c2c(-c4ccc(C(C)=O)cc4)cccc23)CC1` [compound 491], for which the Emax is 25 to 100% in test [1] (setting [7]) and under 25% in test [2] (setting [7]). In addition, the “M1 Activity” value in test [1] (setting [8]) is “xx (activity was measured to be between 2.0 μM and 5.0 μM)”. The “M4 Activity” value in test [2] (setting [9]) is “xx (activity was measured to be between 2.0 μM and 5.0 μM)”.
A word on the EC50: it is the concentration at which the effect is half-maximal. With `CC(=O)CN1CC2(CCN(C[C@@H]3C[C@H]4C=C[C@H]3C4)CC2)c2cc(F)ccc21` [compound 385], the EC50 is 0.1 to 1 µM in test [1] (M1-CHO cells, calcium mobilization (FLIPR)) and over 1 µM in test [2] (M4-CHO cells, calcium mobilization (FLIPR)). The Emax in test [1] (M1-CHO cells, calcium mobilization (FLIPR), read-out: M1 Efficacy) is 65 to 85%; in test [2] (M4-CHO cells, calcium mobilization (FLIPR), read-out: M4 Efficacy), under 65%.
Take `CCOC(=O)N1CCC(N2CCC3(CC2)CN(C(=O)N2CCCCC2)c2ccc(F)cc23)CC1` [compound 598]: the Emax in test [1] (setting [7]) and in test [2] (setting [7]) was 25 to 100% throughout. The “M1 Activity” value in test [1] (setting [8]) was “xxx (activity was measured to be less than 2.0 μM)”. The “M4 Activity” value in test [2] (setting [9]) is on record as “xxx (activity was measured to be less than 2.0 μM)”.
With `CC(=O)N[C@H]1CC2(CCN(CCC3=C(C)CCCC3(C)C)CC2)c2ccccc21` [compound 784], the Emax in test [1] (setting [7]) and in test [2] (setting [7]) was under 25% each time. Besides, the “M1 Activity” value in test [1] (setting [8]) was “x (activity was measured to be greater than 5.0 μM)”. The “M4 Activity” value in test [2] (setting [9]) is “x (activity was measured to be greater than 5.0 μM)”.
Take `CCOC(=O)N1CCC(N2CCC3(CC2)CN(C(C)=O)c2ccc(-c4ccccc4C)cc23)CC1` [compound 78]: the “M1 Activity” value in test [1] (setting [3]) is on record as “xxx (activity was measured to be less than 0.1 μM)”. Moreover, the figures for the Emax in test [1] (setting [4]) and in test [2] (setting [6]) were 65 to 85% and under 65%, respectively. The “M4 Activity” value in test [2] (setting [5]) was “xx (activity was measured to be between 0.1 μM and 1.0 μM)”.
Consider `CC(=O)NC1CCC2(CCN(CCC3CCN(C(=O)C(C)(C)C)CC3)CC2)c2ccccc21` (centres unmarked) [compound 966], for which the results for the Emax in test [1] (setting [7]) and in test [2] (setting [7]) were 25 to 100% and under 25%, respectively. For the same compound, the “M1 Activity” value in test [1] (Table 4, M1 receptor, calcium mobilization (FLIPR)) is recorded as “xxx (activity was measured to be less than 2.0 μM)”. Moreover, the “M4 Activity” value in test [2] (Table 4, M4 receptor, calcium mobilization (FLIPR)) is reported as “x (activity was measured to be greater than 5.0 μM)”.
In the case of `CC(C)OC(=O)N1C2CCC1CC(N1CCC3(CC1)CN(C(=O)O[C@@H]1CCOC1)c1ccc(F)cc13)C2` (some centres unmarked) [compound 361], the “M1 Activity” value in test [1] (setting [3]) is “xx (activity was measured to be between 0.1 μM and 1.0 μM)”. Further, the Emax in test [1] (setting [4]) and in test [2] (setting [6]) was under 65% in each case. Besides, the “M4 Activity” value in test [2] (setting [5]) was “x (activity was measured to be greater than 1.0 μM)”.
With `C#CCCOC(=O)N1CC[C@H](CN2CCC3(CC2)CN(C(C)=O)c2ccccc23)C1` [compound 549], the Emax in test [1] (setting [7]) and in test [2] (setting [7]) was under 25% throughout. The “M1 Activity” value in test [1] (setting [8]) is given as “x (activity was measured to be greater than 5.0 μM)”. Further, in test [2] (setting [9]), the “M4 Activity” value was “x (activity was measured to be greater than 5.0 μM)”.
On to `CN(C)C(=O)N1CC2(CCN(C3CCN(C(=O)COc4ccccc4)CC3)CC2)c2cc(F)ccc21` [compound 588], for which the Emax in test [1] (setting [7]) and in test [2] (setting [7]) was under 25% each time. In addition, the “M1 Activity” value in test [1] (setting [8]) was “x (activity was measured to be greater than 5.0 μM)”. Also, the “M4 Activity” value in test [2] (setting [9]) is recorded as “x (activity was measured to be greater than 5.0 μM)”.
